The inhibition is the share of the control response that was lost under treatment.

We go through 21 compounds from patent EP0465913B1, “Diaminotrifluoromethylpyrimidine derivatives, process for their production and phospholipase A2 inhibitor containing them” (ISHIHARA SANGYO KAISHA, LTD., priority 1990, dated 1992).

Assay [1] addresses T1, Porcine pancreatic phospholipase A2 (Sus scrofa, UniProt P00592).
T1 construct: purchased Boehringer Mannheim·Yamanouchi K.K. 161454·122416
The experiment in a line: Phospholipase A2 inhibitory activity, method B (L-α-dipalmitoylphosphatidylcholine substrate). Format: biochemical. The note with it: 37°C for 30 minutes; for inhibition at 1000 ppm: 1,000 ppm, read-out: % inhibition of PLA2 (1,000 ppm). The procedure:
To a solution prepared by dissolving 9.2 mg of L-α-dipalmitoylphosphatidylcholine (manufactured by Nichiyu Liposome K.K.) in 0.5 ml of chloroform, a solution prepared by dissolving 32 mg of sodium cholate (manufactured by Wako Pure Chemical Industries, Ltd.) in 0.5 ml of methanol, was added, followed by mixing. The solvent of the mixture was removed under a nitrogen stream, and then 2.5 ml of a 250 mM sodium chloride solution [prepared by dissolving sodium chloride in a 100 mM Tris-HCl buffer solution {tris(hydroxymethyl)aminomethane (manufactured by Nacalai Tesque K.K.) was adjusted to pH8.0 with hydrochloric acid}] was added thereto, and the mixture was dissolved under stirring to obtain a substrate.
Porcine pancreatic phospholipase A2 [(161454·122416) manufactured by Boehringer Mannheim·Yamanouchi K.K.] was used.
To a 96 well microtitration plate, 20 µl of a solution containing calcium chloride, bovine serum alubmin (manufactured by Sigma Chemical, Co.) and a Tris-HCl buffer solution (pH8.0) at concentrations of 25 mM, 4.5 mg/ml and 100 mM, respectively, 5 µl of a solution prepared by dissolving 10 mg of a test compound in 500 µl of diemthylsulfoxide, followed by an addition of 500 µl of a 200 mM Tris-HCl buffer solution, 5 µl of an enzyme solution (10 µg/ml) [prepared by dissolving the enzyme in a bovine serum alubmin solution (prepared by dissolving bovine serum alubmin in a 100 mM Tris-HCl buffer solution at a concentration of 1 mg/ml)] and 20 µl of the substrate, were added and reacted at 37°C for 30 minutes. After termination of the reaction, the released free fatty acid was quantitatively analyzed in accordance with the ACS-ACOD (acyl CoA synthetase-acyl CoA oxidase) method [a kit of NEFA C test wako (manufactured by Wako Pure Chemical Industries, Ltd.) was used]. The quantitative analysis was made by means of Microplate ELISA Reader (Model 2550EIA Reader, manufactured by Bio-Rad Laboratories) at a wavelength of 540 nm. Separately, such experiments as mentioned above, were carried out at various concentrations (1 µg/ml, 0.75 µg/ml, 0.5 µg/ml and 0.25 µg/ml) of phospholipase A2 without a test compound. Then, the concentration of the free fatty acid versus the concentration of phospholipase A2 was plotted.
From this standard curve, the apparent concentration of phospholipase A2 in the case with a test compound, was read. Then, the percent inhibition of the enzyme was calculated by the following formula. Percent inhibition (%) = (l -(A)/(B)) x 100 [formula] • A: Apparent enzyme concentration when a test compound is added. • B: True enzyme concentration when a test compound is added.

Assay [2] concerns experimental acute pancreatitis model. The experiment in a line: Effects against acute pancreatitis (Test Example 8, closed duodenal loop method, lesion scores). The class given is in vivo, Crj-CD male rats. The note with it: Rattus norvegicus, 10 mg/kg single intravenous injection, sodium salt, 6 hours after ventrotomy. Here is the method: Using Crj-CD male rats, each test group consisted of 3 rats. An experimental acute pancreatitis model was prepared by a closed duodenal loop method under anethesia with halothane (manufactured by Hoechst Japan) and nitrous oxide (manufactured by Sumitomo Seika K.K.) applied by a general inhalation anesthesia machine (Model EM2 and halothane evaporator F-Model). Each compound (subjected to the test in the form of a sodium salt) was continuously intravenously injected into the tail vein in an amount of 0.4 ml/100 g to 0.6 ml/100 g at a rate of 0.05 ml per minute by a pump (Technicon AA II Proportioning Pump III, manufactured by Technicon Instruments Corporation) or rapidly intravenously injected. No injection was made to a control group. Gross pathological examination was conducted upon expiration of 6 hours after the ventrotomy in the case of the group to which the compound was administered. With respect to each of four lesions among pancreatic lesions i.e. petechia, ecchymosis, pancreatic necrosis and abdominal fatty necrosis, the grade and the distribution of lesions were scored with five grades of 0, 0.5, 1, 2 and 3 (severe lesions are 3). The sum of all lesions was designated as scores of pancreatitis lesions, and the sum of the score of petechia and the score of ecchymosis only was designated as scores of hemorrhagic lesions. The pancreatitis inhibition rate (%) and the hemorrhage inhibition rate (%) were obtained by the following formulas, and the results are shown in Table 13. Pancreatitis inhibition rate (%) = (l -(H)/(G)) x 100 [formula] • H: Scores of pancreatitis lesions of the group to which a test compound was administered. • G: Scores of pancreatitis lesions of the control group. Hemorrhage inhibition rate (%) = (l -(J)/(I)) x 100 [formula] • J: Scores of hemorrhagic lesions of the group to which a test compound was administered. • I: Scores of hemorrhagic lesions of the control group.

For another assay, the system named is carrageenin edema. Kind of assay: Inhibitory activity on carrageenin edema. Format: in vivo, Wistar male rats. The note with it: rat, paw swelling volume three hours after carrageenin; for Inhibition rate (%): dose 50 mg/kg orally. Here is the method: Using Wistar male rats (body weight: about 100 g), each test group consisted of 5 rats. A test compound was mixed with Tween 80 [polyoxyethylenesorbitan monooleate (manufactured by Nacalai Tesque K.K.)], and distilled water was added thereto to obtain a 2% Tween 80 suspension, or it was dissolved in the form of a salt in water to obtain an aqueous solution. Either the suspension or the aqueous solution was orally administered in an amount of 200 mg/kg, 100 mg/kg, 50 mg/kg or 25 mg/kg. One hour later, 0.1 ml of a 1% λ-carrageenin solution dissolved in a physiological saline was injected subcutaneously to the right hind paw of each rat to cause inflamation. Three hours later, the paw volume was measured by a paw volume measuring device (manufactured by Ugobasiee K.K.). A swelling volume was obtained from the difference from the value before the inflammation. Inhibition rate (%) = (l -(F)/(E)) x 100 [formula] • F: Average swelling volume in the group to which a test compound was administered. • E: Average swelling volume in the control group.
Background: The carrageenan paw model is a standard test of acute inflammation.

Setting [3] is: read-out: Inhibition rate of hemorrhagic lesions (%).
The mark [4] stands for this setting: read-out: Inhibition rate of pancreatitis lesions (%).

Like-named read-outs stand apart in the source and are kept apart here.

T1 sequence (P00592 23-146): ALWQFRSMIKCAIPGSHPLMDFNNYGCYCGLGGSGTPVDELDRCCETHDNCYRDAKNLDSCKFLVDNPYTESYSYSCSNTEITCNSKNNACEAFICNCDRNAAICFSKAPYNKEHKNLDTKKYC

For `CCc1ccc(C(=O)Nc2cc(C(F)(F)F)cnc2NS(C)(=O)=O)cc1` [compound 81], in assay [1], the inhibition at 1000 ppm came out at 94%. Besides, the inhibition in vivo at 10 mg/kg in assay [2] (setting [3]) was found to be 49%; in assay [2] (setting [4]), 58%.

Regarding `CCS(=O)(=O)Nc1ncc(C(F)(F)F)cc1NC(=O)C1CCCCCC1` [compound 97], the inhibition at 1000 ppm in assay [1] was found to be 88%. Also, the inhibition in vivo at 10 mg/kg in assay [2] (setting [3]) and in assay [2] (setting [4]) was 35% in each case.

`Cc1ccc(C(=O)Nc2cc(C(F)(F)F)cnc2NS(C)(=O)=O)s1` [compound 83]: the inhibition at 1000 ppm in assay [1] is 64%. The values for the inhibition in vivo at 10 mg/kg in assay [2] (setting [3]) and in assay [2] (setting [4]) were 53% and 51%, respectively.

Turning to `CCCCC(CC)C(=O)Nc1cc(C(F)(F)F)cnc1NS(C)(=O)=O` (stereo not drawn) [compound 65], the inhibition at 1000 ppm in assay [1] was 71%. The “Inhibition rate (%)” value in the assay with carrageenin edema is reported as 37%. For the same compound, the inhibition in vivo at 10 mg/kg in assay [2] (setting [3]) was 67%; in assay [2] (setting [4]), 74%.

With `CCCOC(=O)Nc1cc(C(F)(F)F)cnc1NS(=O)(=O)N(C)C` [compound 114], in assay [1], the inhibition at 1000 ppm came to 53%. In the assay with carrageenin edema, the “Inhibition rate (%)” value is recorded as 28%. Also, the inhibition in vivo at 10 mg/kg was determined as 32% in assay [2] (setting [3]) and 27% in assay [2] (setting [4]).

Regarding `CS(=O)(=O)Nc1ncc(C(F)(F)F)cc1NC(=O)CC1CCCC1` [compound 62], the inhibition at 1000 ppm in assay [1] came out at 53%. Further, the inhibition in vivo at 10 mg/kg in assay [2] (setting [3]) was found to be 45%; in assay [2] (setting [4]), 61%.

On to `CS(=O)(=O)Nc1ncc(C(F)(F)F)cc1NC(=O)C1=CCCCC1` [compound 69], for which the inhibition at 1000 ppm in assay [1] is 63%. The “Inhibition rate (%)” value in the assay on carrageenin edema is 25%.

Turning to `O=C(Nc1ncc(C(F)(F)F)cc1NC(=O)C1CCCCC1)c1ccccc1` [compound 150], the “Inhibition rate (%)” value with carrageenin edema is 23%.

`CS(=O)(=O)Nc1ncc(C(F)(F)F)cc1NC(=O)c1ccco1` [compound 85]: the inhibition at 1000 ppm in assay [1] turned out to be 33%. For the same compound, the inhibition in vivo at 10 mg/kg in assay [2] (setting [3]) was determined as 57%; in assay [2] (setting [4]), 67%.

For `CCOC(=O)NC(=S)Nc1cc(C(F)(F)F)cnc1NS(=O)(=O)c1ccc(C)cc1` [Compound No. 25], the inhibition in vivo at 200 mg/kg in the assay with carrageenin edema (po, 3 h, dose 200 mg/kg orally, read-out: Inhibition rate (%)) was determined as 27%.

Regarding `CS(=O)(=O)Nc1ncc(C(F)(F)F)cc1NC(=O)c1ccc(F)cc1` [compound 259], the “% inhibition of PLA2 (1,000 ppm)” value in assay [1] was 61%. Also, in the assay on carrageenin edema, the “Inhibition rate (%)” value was determined as 17%.

With `CC(C)S(=O)(=O)Nc1ncc(C(F)(F)F)cc1NC(=O)c1cccc(F)c1` [compound 104], the inhibition at 1000 ppm in assay [1] came out at 61%. The “Inhibition rate (%)” value in the assay with carrageenin edema is reported as 48%.

Turning to `CCCCCCC(=O)Nc1cc(C(F)(F)F)cnc1NS(C)(=O)=O` [compound 124], in assay [1], the inhibition at 1000 ppm worked out at 78%. For the same compound, the inhibition in vivo at 10 mg/kg in assay [2] (setting [3]) and in assay [2] (setting [4]) was 51% each time.

Consider `CCOS(=O)(=O)Nc1ncc(C(F)(F)F)cc1NC(=O)C1CCCCC1` [compound 117], for which the inhibition at 1000 ppm in assay [1] amounted to 65%. Moreover, the inhibition in vivo at 10 mg/kg in assay [2] (setting [3]) and in assay [2] (setting [4]) was 30% throughout.

In the case of `Cc1cc(C)cc(C(=O)Nc2cc(C(F)(F)F)cnc2NS(C)(=O)=O)c1` [compound 122], in assay [1], the inhibition at 1000 ppm is 56%. Moreover, the inhibition in vivo at 10 mg/kg in assay [2] (setting [3]) and in assay [2] (setting [4]) was 51% throughout.

Consider `CS(=O)(=O)Nc1ncc(C(F)(F)F)cc1NC(=O)C1CCCCCC1` [compound 67], for which the inhibition at 1000 ppm in assay [1] was 82%. Also, the inhibition in vivo at 25 mg/kg with carrageenin edema (po, 3 h, dose 25 mg/kg orally, read-out: Inhibition rate (%)) turned out to be 19%.

On to `CS(=O)(=O)Nc1ncc(C(F)(F)F)cc1NC(=O)c1ccc2c(c1)CCCC2` [compound 123], for which the inhibition at 1000 ppm in assay [1] was found to be 86%. Further, the “Inhibition rate (%)” value in the assay on carrageenin edema worked out at 42%. Also, the inhibition in vivo at 10 mg/kg in assay [2] (setting [3]) and in assay [2] (setting [4]) was 56% throughout.

`CCC(C(=O)Nc1cc(C(F)(F)F)cnc1NS(C)(=O)=O)c1ccccc1` (stereo not drawn) [compound 66]: in assay [1], the inhibition at 1000 ppm was 52%. Further, in the assay on carrageenin edema, the “Inhibition rate (%)” value is reported as 31%. Besides, the inhibition in vivo at 10 mg/kg worked out at 53% in assay [2] (setting [3]) and 63% in assay [2] (setting [4]).

On to `CCCCCCCC(=O)Nc1cc(C(F)(F)F)cnc1NS(C)(=O)=O` [compound 125], for which the inhibition at 1000 ppm in assay [1] worked out at 86%. The “Inhibition rate (%)” value in the assay on carrageenin edema is reported as 22%.

Consider `C=CCCC(=O)Nc1cc(C(F)(F)F)cnc1NS(C)(=O)=O` [compound 74], for which the inhibition at 1000 ppm in assay [1] worked out at 33%. The inhibition in vivo at 10 mg/kg in assay [2] (setting [3]) was found to be 66%; in assay [2] (setting [4]) it was 67%.

In the case of `CCCCCC(=O)Nc1cc(C(F)(F)F)cnc1NS(=O)(=O)N(C)C` [compound 110], the inhibition at 1000 ppm in assay [1] is 58%. In the assay on carrageenin edema, the “Inhibition rate (%)” value stood at 25%.
